In experiment [1] the target is T1, CFTR in F508del/F508del primary CF hBE cells (Homo sapiens, UniProt P13569, DEL508-508).
T1 construct: Primary cystic fibrosis human bronchial epithelial (CF hBE) cells were expanded and cultured; endogenous in cells; host or cells: primary CF human bronchial epithelial cells, genotype F508del/F508del
Nature of the experiment: Ussing chamber electrophysiology assay of CFTR potentiation in F508del/F508del CF bronchial epithelial cells (27° C.). The class given is cell-based. The text has this:
• SHELXTL, Version 5.1, Bruker AXS, 1997. • PLATON, A. L. Spek, J. Appl. Cryst. 2003, 36, 7-13. • MERCURY, C. F. Macrae, P. R. Edington, P. McCabe, E. Pidcock, G. P. Shields, R. Taylor, M. Towler and J. van de Streek, J. Appl. Cryst. 39, 453-457, 2006. • OLEX2, Dolomanov, O. V.; Bourhis, L. J.; Gildea, R. J.; Howard, J. A. K.; Puschmann, H., (2009). J. Appl. Cryst., 42, 339-341. • R. W. W. Hooft et al. J. Appl. Cryst. (2008). 41. 96-103. • H. D. Flack, Acta Cryst. 1983, A39, 867-881. Using Chamber Electrophysiology Assay of CFTR Potentiation in CF Bronchial Epithelial Cells
Primary cystic fibrosis human bronchial epithelial (CF hBE) cells were expanded and cultured according to published methods (Neuberger et al., Ch. 4 of Cystic Fibrosis, Methods in Molecular Biology vol. 741, pp. 39-54 (2011)). Well-differentiated cells (>30 days at air/liquid interface) on Snapwell filters (Corning Costar, cat. no. 3801) were mounted in Ussing chambers (Physiologic Instruments, Inc., San Diego, CA). […] HEPES buffered physiological saline (composition (in mM): 137 NaCl, 4 KCl, 1 MgCl2, 1.8 CaCl2), 10 HEPES Na) was used in both apical and basolateral chambers. Chambers were bubbled with air to promote mixing and the voltage was clamped to zero. Amiloride (30 uM), forskolin (10 uM), test compound (4 increasing concentrations), and CFTRinh-172 (20 uM) were added sequentially with 20-25 minutes between additions. Short-circuit currents were acquired and analyzed using LabScribe2. Test compound responses were scaled relative to responses for DMSO (0%) and the maximal response of a positive control potentiator (100%).

Experiment [2] has as its target T2, recombinant F508del V470 CFTR in Fischer rat thyroid (FRT) cells (Homo sapiens, UniProt P13569, DEL508-508).
T2 construct: expressed in transfected cells
Nature of the experiment: FRT ion flux assay of F508del CFTR potentiation. The experiment is classed as cell-based. The conditions noted are these: FRT cells expressing F508del V470 CFTR, forskolin 20 uM, 27° C. pre-incubation. Put shortly: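 Potentiation read as YFP quench ~21 s after iodide buffer addition, as second/initial fluorescence ratio normalised between DMSO (0%) and reference potentiator (100%).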

Usually EC50 stands for the concentration at which the effect is half-maximal.

T2 sequence (P13569 with tags, fused parts or gaps DEL508-508): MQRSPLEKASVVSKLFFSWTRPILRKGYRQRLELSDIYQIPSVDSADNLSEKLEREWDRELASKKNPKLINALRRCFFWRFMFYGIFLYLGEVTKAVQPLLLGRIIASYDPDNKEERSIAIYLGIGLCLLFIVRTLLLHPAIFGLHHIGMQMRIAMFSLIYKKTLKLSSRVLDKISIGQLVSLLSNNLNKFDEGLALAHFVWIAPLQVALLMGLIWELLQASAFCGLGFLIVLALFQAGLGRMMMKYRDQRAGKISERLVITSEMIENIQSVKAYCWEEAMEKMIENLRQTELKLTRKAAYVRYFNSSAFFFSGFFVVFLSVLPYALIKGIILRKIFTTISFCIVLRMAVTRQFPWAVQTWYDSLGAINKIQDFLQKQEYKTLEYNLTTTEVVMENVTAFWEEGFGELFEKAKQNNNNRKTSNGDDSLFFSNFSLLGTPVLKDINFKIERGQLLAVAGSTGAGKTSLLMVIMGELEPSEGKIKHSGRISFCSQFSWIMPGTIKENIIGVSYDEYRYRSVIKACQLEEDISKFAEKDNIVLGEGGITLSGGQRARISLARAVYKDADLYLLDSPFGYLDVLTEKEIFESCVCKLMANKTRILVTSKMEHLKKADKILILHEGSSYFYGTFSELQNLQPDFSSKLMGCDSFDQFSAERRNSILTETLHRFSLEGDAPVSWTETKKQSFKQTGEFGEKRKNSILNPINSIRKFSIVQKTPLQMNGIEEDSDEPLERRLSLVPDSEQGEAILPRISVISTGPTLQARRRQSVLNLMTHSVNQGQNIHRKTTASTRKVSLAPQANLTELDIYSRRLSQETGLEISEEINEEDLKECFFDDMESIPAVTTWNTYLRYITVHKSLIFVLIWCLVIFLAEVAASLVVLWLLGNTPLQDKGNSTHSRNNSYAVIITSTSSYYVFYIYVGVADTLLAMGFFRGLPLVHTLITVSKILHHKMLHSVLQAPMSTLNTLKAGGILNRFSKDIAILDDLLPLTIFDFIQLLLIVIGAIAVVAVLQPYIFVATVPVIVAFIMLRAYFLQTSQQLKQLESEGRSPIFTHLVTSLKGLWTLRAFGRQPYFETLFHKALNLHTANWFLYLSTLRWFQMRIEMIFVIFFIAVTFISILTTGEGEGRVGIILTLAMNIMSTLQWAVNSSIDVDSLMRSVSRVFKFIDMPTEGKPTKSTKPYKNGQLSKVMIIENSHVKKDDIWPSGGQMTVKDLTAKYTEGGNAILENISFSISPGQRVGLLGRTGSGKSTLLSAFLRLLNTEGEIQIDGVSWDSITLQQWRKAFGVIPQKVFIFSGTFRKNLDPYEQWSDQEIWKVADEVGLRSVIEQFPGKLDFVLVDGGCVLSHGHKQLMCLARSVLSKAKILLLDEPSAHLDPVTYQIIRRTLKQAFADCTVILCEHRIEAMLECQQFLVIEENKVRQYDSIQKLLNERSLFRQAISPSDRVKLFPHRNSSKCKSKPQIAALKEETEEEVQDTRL
T1 sequence (P13569 with tags, fused parts or gaps DEL508-508): as above

Turning to `CCC(c1cn(-c2ccccc2F)nn1)n1c(C#N)c(-c2ccc(OC(F)F)nc2)c2c(N)ncnc21` (single isomer, unassigned) [Example 24, 4-Amino-5-[6-(difluoromethoxy)pyridin-3-yl]-7-{1-[1-(2-fluorophenyl)-1H-1,2,3-triazol-4-yl]propyl}-7H-pyrrolo[2,3-d]pyrimidine-6-carbonitrile], the EC50 in experiment [1] stood at 30 nM; in experiment [2], 21.5 nM.

`CC(c1cn(-c2ccccc2F)nn1)n1cc(C2CC2)c2c(N)ncnc21` (single isomer, unassigned) [Example 108, 5-Cyclopropyl-7-{1-[1-(2-fluorophenyl)-1H-1,2,3-triazol-4-yl]ethyl}-7H-pyrrolo[2,3-d]pyrimidin-4-amine]: the figures for the EC50 in experiment [1] and in experiment [2] were 706 nM and 1200 nM, respectively.

As for `CC(c1cn(-c2ccccc2F)nn1)n1cc(C2CC2)c2c(N)ncnc21` (single isomer, unassigned) [Example 109, 5-Cyclopropyl-7-{1-[1-(2-fluorophenyl)-1H-1,2,3-triazol-4-yl]ethyl}-7H-pyrrolo[2,3-d]pyrimidin-4-amine], the 50% effective concentration (EC50) is 68.6 nM in experiment [1] and 36.5 nM in experiment [2].

Turning to `CC(c1cn(-c2ccccc2F)nn1)n1cc(C2CCC2)c2c(N)ncnc21` (single isomer, unassigned) [Example 110, 5-Cyclobutyl-7-{1-[1-(2-fluorophenyl)-1H-1,2,3-triazol-4-yl]ethyl}-7H-pyrrolo[2,3-d]pyrimidin-4-amine], the EC50 in experiment [1] worked out at 6.21 nM; in experiment [2], 2.65 nM.

In the case of `CC(c1cn(-c2ccccc2F)nn1)n1cc(-c2ccc(Cl)cc2)c2c(N)ncnc21` (single isomer, unassigned) [Example 111], the EC50 stood at 136 nM in experiment [1] and 533 nM in experiment [2].

Regarding `CC(c1cn(-c2ccccc2F)nn1)n1cc(-c2ccc(Cl)cc2)c2c(N)ncnc21` (single isomer, unassigned) [Example 112], the values for the EC50 in experiment [1] and in experiment [2] were 17.5 nM and 68.6 nM, respectively.

As to `COc1ncccc1-c1cn(C(C)c2cn(-c3ccccc3F)nn2)c2ncnc(N)c12` (single isomer, unassigned) [Example 113, 7-{1-[1-(2-Fluorophenyl)-1H-1,2,3-triazol-4-yl]ethyl}-5-(2-methoxypyridin-3-yl)-7H-pyrrolo[2,3-d]pyrimidin-4-amine], the EC50 in experiment [1] came out at 818 nM; in experiment [2], 826 nM.

In the case of `CCC(c1cn(-c2cc(F)ccc2F)nn1)n1cc(-c2cnc(C(F)(F)F)nc2)c2c(N)ncnc21` (single isomer, unassigned) [Example 185, 7-{1-[1-(2,5-difluorophenyl)-1H-1,2,3-triazol-4-yl]propyl}-5-[2-(trifluoromethyl)pyrimidin-5-yl]-7H-pyrrolo[2,3-d]pyrimidin-4-amine], the figures for the EC50 in experiment [1] and in experiment [2] were 14.4 nM and 34.7 nM, respectively.

`CCC(c1cn(-c2cc(F)ccc2F)nn1)n1cc(-c2cnc(C(F)(F)F)nc2)c2c(N)ncnc21` (single isomer, unassigned) [Example 186, 7-{1-[1-(2,5-difluorophenyl)-1H-1,2,3-triazol-4-yl]propyl}-5-[2-(trifluoromethyl)pyrimidin-5-yl]-7H-pyrrolo[2,3-d]pyrimidin-4-amine]: the EC50 in experiment [1] was 297 nM; in experiment [2], 631 nM.

On to `CCC(c1cn(-c2cccc(F)c2F)nn1)n1cc(-c2cnc(C(F)(F)F)nc2)c2c(N)ncnc21` (single isomer, unassigned) [Example 187, 7-{1-[1-(2,3-Difluorophenyl)-1H-1,2,3-triazol-4-yl]propyl}-5-[2-(trifluoromethyl)pyrimidin-5-yl]-7H-pyrrolo[2,3-d]pyrimidin-4-amine], for which the EC50 was determined as 13 nM in experiment [1] and 13.2 nM in experiment [2].

Turning to `CCC(c1cn(-c2cccc(F)c2F)nn1)n1cc(-c2cnc(C(F)(F)F)nc2)c2c(N)ncnc21` (single isomer, unassigned) [Example 188, 7-{1-[1-(2,3-Difluorophenyl)-1H-1,2,3-triazol-4-yl]propyl}-5-[2-(trifluoromethyl)pyrimidin-5-yl]-7H-pyrrolo[2,3-d]pyrimidin-4-amine], the 50% effective concentration (EC50) turned out to be 243 nM in experiment [1] and 551 nM in experiment [2].

Turning to `CCC(c1nnn(-c2ccc(F)cc2F)c1C)n1cc(-c2cnc(C(F)(F)F)nc2)c2c(N)ncnc21` (single isomer, unassigned) [Example 189], the concentration for a half-maximal effect (EC50) in experiment [1] stood at 10.2 nM; in experiment [2], 6.72 nM.

Regarding `COc1ncc(-c2cn(C(C)c3cc(-c4ccccc4F)no3)c3ncnc(N)c23)cn1` (single isomer, unassigned; (+)) [Example 184, (+) 7-{1-[3-(2-fluorophenyl)-1,2-oxazol-5-yl]ethyl}-5-(2-methoxypyrimidin-5-yl)-7H-pyrrolo[2,3-d]pyrimidin-4-amine], the EC50 in experiment [1] was 32.6 nM; in experiment [2] it was 49.7 nM.

As for `CCC(c1cn(-c2ccccc2F)nn1)n1cc(-c2cncnc2OC)c2c(N)nc(C)nc21` (single isomer, unassigned; (+)) [Example 303, (+) 7-{1-[1-(2-Fluorophenyl)-1H-1,2,3-triazol-4-yl]propyl}-5-(4-methoxypyrimidin-5-yl)-2-methyl-7H-pyrrolo[2,3-d]pyrimidin-4-amine], the values for the EC50 in experiment [1] and in experiment [2] were 1640 nM and 2740 nM, respectively.

As for `COc1ncc(-c2cn(C(C)c3cc(-c4ccccc4F)no3)c3ncnc(N)c23)cn1` (single isomer, unassigned; (-)) [Example 183, (−) 7-{1-[3-(2-fluorophenyl)-1,2-oxazol-5-yl]ethyl}-5-(2-methoxypyrimidin-5-yl)-7H-pyrrolo[2,3-d]pyrimidin-4-amine], the results for the EC50 in experiment [1] and in experiment [2] were 305 nM and 509 nM, respectively.

Consider `CC(c1cn(-c2ccccc2F)nn1)n1cc(-c2ccc(C#N)c(F)c2)c2c(N)ncnc21` (single isomer, unassigned; enantiomer 1) [Example 115, 4-(4-Amino-7-{1-[1-(2-fluorophenyl)-1H-1,2,3-triazol-4-yl]ethyl}-7H-pyrrolo[2,3-d]pyrimidin-5-yl)-2-fluorobenzonitrile, enantiomer 1], for which the EC50 amounted to 614 nM in experiment [1] and 566 nM in experiment [2].

Consider `CC(c1cn(-c2ccccc2F)nn1)n1cc(-c2ccc(OC3CC3)cc2)c2c(N)ncnc21` (single isomer, unassigned; enantiomer 1) [Example 117, (+) 5-[4-(Cyclopropyloxy)phenyl]-7-{1-[1-(2-fluorophenyl)-1H-1,2,3-triazol-4-yl]ethyl}-7H-pyrrolo[2,3-d]pyrimidin-4-amine, enantiomer 1], for which the EC50 in experiment [1] stood at 49.3 nM; in experiment [2] it was 58.8 nM.

Consider `CC(c1cn(-c2ccccc2F)nn1)n1cc(-c2ccc(OC3CC3)nc2)c2c(N)ncnc21` (single isomer, unassigned; enantiomer 1) [Example 119, (−) 5-[6-(Cyclopropyloxy)pyridin-3-yl]-7-{1-[1-(2-fluorophenyl)-1H-1,2,3-triazol-4-yl]ethyl}-7H-pyrrolo[2,3-d]pyrimidin-4-amine, enantiomer 1], for which the 50% effective concentration (EC50) in experiment [1] was 187 nM; in experiment [2], 677 nM.

Turning to `CC(c1cn(-c2ccccc2F)nn1)n1cc(-c2cc[nH]n2)c2c(N)ncnc21` (single isomer, unassigned; enantiomer 1) [Example 121, 7-{1-[1-(2-Fluorophenyl)-1H-1,2,3-triazol-4-yl]ethyl}-5-(1H-pyrazol-3-yl)-7H-pyrrolo[2,3-d]pyrimidin-4-amine, enantiomer 1], the EC50 in experiment [1] was 89.2 nM; in experiment [2], 30 nM.

Consider `CC(c1cn(-c2ccc(F)cc2F)nn1)n1cc(-c2cnc(C(F)(F)F)nc2)c2c(N)ncnc21` (single isomer, unassigned; enantiomer 1) [Example 123, 7-{1-[1-(2,4-Difluorophenyl)-1H-1,2,3-triazol-4-yl]ethyl}-5-[2-(trifluoromethyl)pyrimidin-5-yl]-7H-pyrrolo[2,3-d]pyrimidin-4-amine, enantiomer 1], for which the 50% effective concentration (EC50) worked out at 50.5 nM in experiment [1] and 21.6 nM in experiment [2].

Consider `CCC(c1cn(-c2ccccc2)nn1)n1cc(-c2ccc(OC)nc2)c2c(N)ncnc21` (single isomer, unassigned; enantiomer 1) [Example 125, 5-(6-Methoxypyridin-3-yl)-7-[1-(1-phenyl-1H-1,2,3-triazol-4-yl)propyl]-7H-pyrrolo[2,3-d]pyrimidin-4-amine, enantiomer 1], for which the EC50 is 199 nM in experiment [1] and 395 nM in experiment [2].

Source of the values: patent publication US12612409B2, “Pyrrolopyrimidines as CFTR potentiators” (Cystic Fibrosis Foundation, priority 2016, dated 2026).
